What was measured:
[1] = system: breast carcinoma MDA-MB-231; design: method as in PMID 26101532; settings: MDA-MB-231, third of three values, order assumed; cited from earlier work
HeLa = experiment: MTT antiproliferative assay, HeLa; assay type: cell-based; settings: Homo sapiens, 72 h, no IC50 calculated when less than 50% inhibition at 10 μM
Excerpt: (§1) The antiproliferative activities of the prepared diterpene analogues were studied using an MTT assay on a panel of human adherent cancer lines, including cells from cervical (HeLa), breast (MDA-MB-231, MCF-7), and ovary cancers (A2780), as given in Figure 1 and Table S1 in the Supplementary Materials. A non-malignant fibroblast cell line (NIH/3T3) was also utilised to obtain preliminary information on the cancer selectivity of the tested compounds. Based on the obtained activities, some conclusions could be drawn regarding the structure–activity relationships (SARs). Since neither the key intermediate benzyl ester of hydroxylaldehyde 4 nor the N-Boc protected aminoalcohols (6, 7, 11, 12) or even compound 8 with a free carboxylic function exerted remarkable antiproliferative effects (except for 12 against A2780 ovarian cancer cells), we could conclude that the simultaneous presence of the ester function and the basic secondary amino function were essential for the inhibition of cell growth. […] All active molecules inhibited considerably the proliferation of non-malignant cells, which meant that most currently presented agents were not optimal for further investigations of their anticancer properties.
(§2) The growth-inhibitory effects of the isosteviol-based 1,3-aminoalcohols were determined by a standard MTT (3-(4,5-dimethylthiazol-2-yl)-2,5-diphenyltetrazolium bromide) assay on a panel containing five cell lines, including Hela (cervical cancer), MDA-MB-231 and MCF-7 (breast cancers), and A2780 ovarian cancer cells. All cell lines were purchased from the European Collection of Cell Cultures (Salisbury, UK). The cells were maintained in a minimal essential medium supplemented with 10% foetal bovine serum, 1% non-essential amino acids, and 1% penicillin–streptomycin at 37 °C in a humidified atmosphere containing 5% CO2. All media and supplements were obtained from Lonza Group Ltd. (Basel, Switzerland). Cancer cells were seeded into 96-well plates (5000 cells/well); after overnight incubation, the test compound was added in two different concentrations (10 µM and 30 µM) and incubated for another 72 h under cell-culturing conditions. In the next step, 20 μL of 5 mg/mL of an MTT solution was added to each well and incubated for a further 4 h. The medium was removed and the precipitated formazan crystals were dissolved in DMSO after 60 min of shaking at 37 °C. As a final step, the absorbance was measured at 545 nm by using a microplate reader. Untreated cells were included as controls. […] Two independent experiments were performed with five wells for each condition. Calculations were performed using the GraphPad Prism 10.0 software (GraphPad Software Inc., San Diego, CA, USA).

A2780 = experiment: MTT antiproliferative assay, A2780; assay type: cell-based; settings: Homo sapiens, 72 h, no IC50 calculated when less than 50% inhibition at 10 μM
Excerpt: as §1, §2

MDA-MB-231 = experiment: MTT antiproliferative assay, MDA-MB-231; assay type: cell-based; settings: Homo sapiens, 72 h, no IC50 calculated when less than 50% inhibition at 10 μM
Excerpt: as §1, §2

NIH/3T3 = experiment: MTT assay on non-malignant fibroblasts; assay type: cell-based; settings: Mus musculus, NIH3T3, 72 h, no IC50 calculated when less than 50% inhibition at 10 μM
Excerpt: as §1, §2

MCF-7 = experiment: MTT antiproliferative assay, MCF-7; assay type: cell-based; settings: Homo sapiens, MCF7, 72 h, no IC50 calculated when less than 50% inhibition at 10 μM
Excerpt: as §1, §2

Row | SMILES | IC50 [1] | IC50 (HeLa) | IC50 (A2780) | IC50 (MDA-MB-231) | IC50 (NIH/3T3) | melting point | IC50 (MCF-7)
1 | COc1cccc2c1C(=O)c1c(O)c3c(c(O)c1C2=O)C[C@@](O)(C(=O)CO)C[C@@H]3O[C@H]1C[C@H](N)[C@H](O)[C@H](C)O1 [Adriamycin] | 2.26 µM |  |  |  |  |  | 
2 | C[C@]12CCC3[C@](CC[C@@H]4[C@](C)(C(=O)O)CCC[C@@]34C)(C1)[C@H](CNCc1ccc(F)cc1)[C@H]2O (stereo partly drawn) [Compound 8, (4R,4aS,6aS,7R,8R,9S,11bS)-7-(((4-Fluorobenzyl)amino)methyl)-8-hydroxy-4,9,11b-trimethyltetradecahydro-6a,9-methanocyclohepta[a]naphthalene-4-carboxylic Acid] |  | > 10 µM | > 10 µM | > 10 µM | > 10 µM | 149 to 150 °C | > 10 µM
3 | C#CCOC(=O)[C@]1(C)CCC[C@@]2(C)C3CC[C@@]4(C)C[C@]3(CC[C@H]12)[C@H](CNCc1ccc(F)cc1)[C@H]4O (stereo partly drawn) [Compound 14, (4R,4aS,6aS,7R,8R,9S,11bS)-Prop-2-yn-1-yl 7-(((4-fluorobenzyl)amino)methyl)-8-hydroxy-4,9,11b-trimethyltetradecahydro-6a,9-methanocyclohepta[a]naphthalene-4-carboxylate] |  | 2.7 µM | 1.36 µM | 2.23 µM | 5.92 µM | 104 to 105 °C | 1.54 µM
4 | CC[C@@H](NC[C@@H]1[C@@H](O)[C@@]2(C)CCC3[C@]1(CC[C@@H]1[C@](C)(C(=O)OCc4ccccc4)CCC[C@@]31C)C2)c1ccccc1 (stereo partly drawn) [Compound 16, (4R,4aS,6aS,7R,8R,9S,11bS)-Benzyl 8-hydroxy-4,9,11b-trimethyl-7-((((R)-1-phenylpropyl)amino)methyl)tetradecahydro-6a,9-methanocyclohepta[a]naphthalene-4-carboxylate] |  | 3.86 µM | 4 µM | 4.79 µM | 1.37 µM |  | 3.48 µM
5 | CC[C@H](NC[C@@H]1[C@@H](O)[C@@]2(C)CCC3[C@]1(CC[C@@H]1[C@](C)(C(=O)OCc4ccccc4)CCC[C@@]31C)C2)c1ccccc1 (stereo partly drawn) [Compound 17, (4R,4aS,6aS,7R,8R,9S,11bS)-Benzyl 8-hydroxy-4,9,11b-trimethyl-7-((((S)-1-phenylpropyl)amino)methyl)tetradecahydro-6a,9-methanocyclohepta[a]naphthalene-4-carboxylate] |  | 4.45 µM | 3.78 µM | 4.04 µM | 1.95 µM |  | 4.74 µM
6 | C[C@@H](NC[C@@H]1[C@@H](O)[C@@]2(C)CCC3[C@]1(CC[C@@H]1[C@](C)(C(=O)OCc4ccccc4)CCC[C@@]31C)C2)c1cccc2ccccc12 (stereo partly drawn) [Compound 18, (4R,4aS,6aS,7R,8R,9S,11bS)-Benzyl 8-hydroxy-4,9,11b-trimethyl-7-((((R)-1-(naphthalen-1-yl)ethyl)amino)methyl)tetradecahydro-6a,9-methanocyclohepta[a]naphthalene-4-carboxylate] |  | 3.05 µM | 2.89 µM | 4.63 µM | 4.61 µM |  | 4.85 µM
7 | C[C@H](NC[C@@H]1[C@@H](O)[C@@]2(C)CCC3[C@]1(CC[C@@H]1[C@](C)(C(=O)OCc4ccccc4)CCC[C@@]31C)C2)c1cccc2ccccc12 (stereo partly drawn) [Compound 19, (4R,4aS,6aS,7R,8R,9S,11bS)-Benzyl 8-hydroxy-4,9,11b-trimethyl-7-((((S)-1-(naphthalen-1-yl)ethyl)amino)methyl)tetradecahydro-6a,9-methanocyclohepta[a]naphthalene-4-carboxylate] |  | 6.08 µM | 4.41 µM | 7.29 µM | 5.44 µM |  | 5.59 µM
8 | CC12CCC3C(CC[C@@H]4[C@](C)(C(=O)OCc5ccccc5)CCC[C@@]34C)(C1)[C@H](CNCCCn1ccnc1)[C@H]2O (stereo partly drawn) [Compound 20, (4R,4aS,7R,8R,11bS)-Benzyl 7-(((3-(1H-imidazol-1-yl)propyl)amino)methyl)-8-hydroxy-4,9,11b-trimethyltetradecahydro-6a,9-methanocyclohepta[a]naphthalene-4-carboxylate] |  | 1.99 µM | 3.74 µM | 1.78 µM | 4.78 µM |  | 1.37 µM
9 | COC(=O)[C@]1(C)CCC[C@@]2(C)C3CC[C@@]4(C)C[C@]3(CC[C@H]12)[C@H](CN[C@H](C)c1ccc(F)cc1)[C@H]4O (stereo partly drawn) [Compound 23, (4R,4aS,6aS,7R,8R,9S,11bS)-Methyl 7-((((R)-1-(4-fluorophenyl)ethyl)amino)methyl)-8-hydroxy-4,9,11b-trimethyltetradecahydro-6a,9-methanocyclohepta[a]naphthalene-4-carboxylate] |  | 4.16 µM | 4.24 µM | 5.08 µM | 1.79 µM |  | 3.16 µM
10 | CC[C@@H](NC[C@@H]1[C@@H](O)[C@@]2(C)CCC3[C@]1(CC[C@@H]1[C@](C)(C(=O)OC)CCC[C@@]31C)C2)c1ccccc1 (stereo partly drawn) [Compound 24, (4R,4aS,6aS,7R,8R,9S,11bS)-Methyl 8-hydroxy-4,9,11b-trimethyl-7-((((R)-1-phenylpropyl)amino)methyl)tetradecahydro-6a,9-methanocyclohepta[a]naphthalene-4-carboxylate] |  | 3.04 µM | 4.52 µM | 4.99 µM | 4.44 µM |  | 2.37 µM
11 | CC[C@H](NC[C@@H]1[C@@H](O)[C@@]2(C)CCC3[C@]1(CC[C@@H]1[C@](C)(C(=O)OC)CCC[C@@]31C)C2)c1ccccc1 (stereo partly drawn) [Compound 25, (4R,4aS,6aS,7R,8R,9S,11bS)-Methyl 8-hydroxy-4,9,11b-trimethyl-7-((((S)-1-phenylpropyl)amino)methyl)tetradecahydro-6a,9-methanocyclohepta[a]naphthalene-4-carboxylate] |  | 4.43 µM | 4.83 µM | 6.53 µM | 3.98 µM |  | 4.17 µM
12 | COC(=O)[C@]1(C)CCC[C@@]2(C)C3CC[C@@]4(C)C[C@]3(CC[C@H]12)[C@H](CN[C@@H](C)c1ccc2ccccc2c1)[C@H]4O (stereo partly drawn) [Compound 26, (4R,4aS,6aS,7R,8R,9S,11bS)-Methyl 8-hydroxy-4,9,11b-trimethyl-7-((((S)-1-(naphthalen-2-yl)ethyl)amino)methyl)tetradecahydro-6a,9-methanocyclohepta[a]naphthalene-4-carboxylate] |  | 4.33 µM | 4.11 µM | 6.07 µM | 3.12 µM |  | 3.67 µM
13 | COC(=O)[C@]1(C)CCC[C@@]2(C)C3CC[C@@]4(C)C[C@]3(CC[C@H]12)[C@H](CN[C@H](C)c1ccc2ccccc2c1)[C@H]4O (stereo partly drawn) [Compound 27, (4R,4aS,6aS,7R,8R,9S,11bS)-Methyl 8-hydroxy-4,9,11b-trimethyl-7-((((R)-1-(naphthalen-2-yl)ethyl)amino)methyl)tetradecahydro-6a,9-methanocyclohepta[a]naphthalene-4-carboxylate] |  | 3.4 µM | 3.26 µM | 4.11 µM | 5.03 µM |  | 2.43 µM
14 | COC(=O)[C@]1(C)CCC[C@@]2(C)C3CC[C@@]4(C)C[C@]3(CC[C@H]12)[C@H](CNCCCn1ccnc1)[C@H]4O (stereo partly drawn) [Compound 28, (4R,4aS,6aS,7R,8R,9S,11bS)-Methyl 7-(((3-(1H-imidazol-1-yl)propyl)amino)methyl)-8-hydroxy-4,9,11b-trimethyltetradecahydro-6a,9-methanocyclohepta[a]naphthalene-4-carboxylate] |  | 3.72 µM | 4.42 µM | 4.34 µM | 1.55 µM |  | 3.82 µM

— publication PMC10893060, “Synthesis and Study of the Structure–Activity Relationship of Antiproliferative N-Substituted Isosteviol-Based 1,3-Aminoalcohols” (Pharmaceuticals, 2024)
